Common to all, as to format: cell-based
For assay [1], the system named is Escherichia coli. In words: MIC/MBC by two-fold dilution, microtiter 96 well plate method. To be noted: E. coli (ATCC—25922), standard/control strain. The protocol:
(§1) Compounds 6a and 6b were tested for their antimicrobial activity against both gram positive and gram negative drug-resistant bacteria. Minimum inhibitory concentration (MIC) and minimum bactericidal concentration (MBC) values for compounds 6a and 6b, as compared with a reference antibacterial drug (ampicillin), for Escherichia coli (EC), Pseudomonas aeruginosa (PS), Salmonella typhi (ST), Staphylococcus aureus (SA), and Staphylococcus epidermis (SE) are reported in Tables 2A and 2B.
(§2) The quantitative and qualitative screening of anti-bacterial activity of compounds 6a and 6b was conducted, the results being described above. Quantitative screening was determined by minimal inhibitory concentration (MIC) and minimal bactericidal concentration (MBC), while qualitative screening was accomplished by disc diffusion method. E. coli (ATCC—25922) and S. epidermis (ATCC 12228) were used as standard strains, and drug-resistant pathogens P. aeruginosa, S. typhi, and S. aureus were used to screen the antimicrobial activity. Gram negative bacteria were maintained on nutrient broth (NB)/agar plates (NA) and gram positive bacteria were maintained on trypticase soy broth (TSB)/agar plates (TSA). The compounds 6a and 6b concentration range was prepared by two-fold dilution in a sterile broth from the stock, using a microtiter 96 well plate method. Twelve dilutions of each compound, ranging from 7500 to 3.65 μg/ml, were tested, and Ampicillin was used as a positive control agent (with a range of 500 to 0.24 μg/ml).

Assay [2] concerns Pseudomonas aeruginosa. The description is as above. The following applies: drug-resistant P. aeruginosa. The protocol: as §1, §2
Assay [3] relates to Salmonella typhi. The description is as above. The following applies: drug-resistant S. typhi. The procedure:
as §1, §2

The test system of assay [4] is Staphylococcus aureus. Described as above. To be noted: drug-resistant S. aureus. The procedure:
as §1, §2

For assay [5], the system named is Staphylococcus epidermis. Described as above. The following applies: S. epidermis (ATCC 12228), standard/control strain. The procedure:
as §1, §2

Assay [6] concerns Pseudomonas aeruginosa. The assay can be described thus: Disc diffusion, zone of inhibition. To be noted: drug-resistant P. aeruginosa; for Zone of inhibition: diameter: 37° C., 24h. On the set-up: key to Zone of inhibition (class): R: Resistant. The protocol: (§3) The qualitative screenings of antimicrobial activity were measured by plating in petri dishes to determine the formation of zones of inhibition for bacterial pathogens tested against compounds 6a, 6b and the standard antibiotic ampicillin.
as §2
(§4) The mid log bacterial inoculum was speeded on NA/TSA and the loaded disc was placed on agar plates and incubated at 37° C. for 24h. After this period, the inhibitions produced by the compounds around the disc were measured using antibiotic zone scale (Hi-Media, Mumbai, India) and zone of inhibitions were measured in mm.
A general note: In agar diffusion tests the substance spreads into inoculated agar from a disc or well.

Assay [7] deals with Salmonella typhi. In words: Disc diffusion, zone of inhibition. On the set-up: key to Zone of inhibition (class): R: Resistant. To be noted: drug-resistant S. typhi; for Zone of inhibition: diameter: 37° C., 24h. The protocol: as §3, §2, §4
The subject of assay [8] is Staphylococcus aureus. The assay can be described thus: Disc diffusion, zone of inhibition. The arrangement: key to Zone of inhibition (class): R: Resistant. To be noted: drug-resistant S. aureus; for Zone of inhibition: diameter: 37° C., 24h. The procedure: as §3, §2, §4
Assay [9] concerns Escherichia coli. The assay can be described thus: Disc diffusion, zone of inhibition. To be noted: E. coli control strain; for Zone of inhibition: diameter: 37° C., 24h. The procedure: as §3, §2, §4
Assay [10] concerns Staphylococcus epidermis. The assay can be described thus: Disc diffusion, zone of inhibition. To be noted: S. epidermis control strain; for Zone of inhibition: diameter: 37° C., 24h. The protocol: as §3, §2, §4
For a further assay, the system named is P. aeruginosa. In words: AO/EB live/dead bacterial double staining. The following applies: P. aeruginosa treated at MIC, 4 hours; fluorescent microscope. The procedure: (§5) The acridine orange (AO) and ethidium bromide (EB) double staining method was used to analyse the Live/dead bacterial cells for untreated and compound 6a-treated S. aureus and P. aeruginosa cells. Both sets of cells, treated and untreated for each of the two bacteria, were stained with AO/EB for 15 minutes. The unbound dyes were removed by rinsing the cells twice with phosphate buffer saline (PBS). 10 μl samples of each were then placed on a glass slide with coverslip, and observed using a ZEISS inverted florescent microscope. The untreated gram positive (FIG. 6A) and gram negative (FIG. 6C) bacterial cells appeared green due to the presence of healthy, viable cells with intact/undamaged cell membranes and uniform chromatin. In contrast, the compound 6a-treated cells (treated gram positive in FIG. 6B, and treated gram negative in 6D) appeared red due to the resulting dents, blisters and damaged cell walls on bacterial cells, providing entry for the EB dye. Thus, the AO/EB double staining confirms the bactericidal action of compound 6a through cell wall and cell membrane damage.
(§6) Fluorescent dye stock solution was prepared by dissolving equal quantities of acridine orange (AO) and ethidium bromide (EB)—10 mg each—in 10 ml of PBS. The working solution was prepared by diluting 200 μl of stock solution into 10 ml of PBS. […]

A further assay deals with S. aureus. The assay can be described thus: AO/EB live/dead bacterial double staining. To be noted: S. aureus treated at MIC, 4 hours; fluorescent microscope. The protocol: as §5, §6

Broadly, the MBC is the smallest concentration meeting the test's criterion for killing. In general, MIC refers to the least concentration at which growth counts as inhibited. One may read the zone of inhibition as the extent of the growth-free halo in a diffusion test.

Converted amounts (≈) assume the structure as drawn. “And” between values parts separate entries of the source, which are not always exact repeats. Identical values can stand only once. “Also recorded” adds a separate entry of the source. Like-named read-outs stand apart in the source and are kept apart here.

As for `O=C1C(=Cc2ccccc2F)CNCC12C(c1ccccc1F)C1CSCN1C21C(=O)Nc2ccccc21` (stereo not drawn) [Compound 6b, spiro[5.3″ ]-oxindole-spiro-[6.2′]-6′-(2-fluorophenylmethylidene)tetrahydro-4′(1H)-pyridinone-7-(2-fluorophenyl)tetrahydro-1H-pyrrolo[1,2-c][1,3] thiazole], the MBC with Escherichia coli [1] came out at 58.55 µg/mL (≈ 111 µM); in the assay on Pseudomonas aeruginosa [2], 117.15 µg/mL (≈ 221 µM); with Salmonella typhi [3] it was 117.15 µg/mL (≈ 221 µM); in the assay on Staphylococcus aureus [4] it was 117.15 µg/mL (≈ 221 µM); in the assay on Staphylococcus epidermis [5], 58.55 µg/mL (≈ 111 µM). The MIC against Escherichia coli [1] turned out to be 29.25 µg/mL (≈ 55.2 µM); with Pseudomonas aeruginosa [2] it was 58.55 µg/mL (≈ 111 µM); against Salmonella typhi [3], 58.55 µg/mL (≈ 111 µM); in the assay with Staphylococcus aureus [4] it was 68.55 µg/mL (≈ 129 µM); against Staphylococcus epidermis [5], 29.25 µg/mL (≈ 55.2 µM). Besides, the “Zone of inhibition: diameter” value is 16.3 ± 1.63 mm in the assay on Pseudomonas aeruginosa [6] (120 μg/disc); 16.3 ± 1.08 mm in the assay on Salmonella typhi [7] (120 μg/disc); 17.6 ± 1.47 mm in the assay on Staphylococcus aureus [8] (120 μg/disc); 18.6 ± 1.47 mm in the assay with Escherichia coli [9] (120 μg/disc); 19.3 mm in the assay on Staphylococcus epidermis [10] (120 μg/disc).
Consider `CC1(C)S[C@@H]2[C@H](NC(=O)[C@H](N)c3ccccc3)C(=O)N2[C@H]1C(=O)O` [Ampicillin, reference compound], for which the MBC in the assay on Escherichia coli [1] (Escherichia coli, read-out: MBC) was 7.81 µg/mL (≈ 22.4 µM); with Staphylococcus epidermis [5] (Staphylococcus, ATCC12228, read-out: MBC), 7.81 µg/mL (≈ 22.4 µM). The MIC with Escherichia coli [1] (Escherichia coli, read-out: MIC) is 3.9 µg/mL (≈ 11.2 µM); in the assay on Staphylococcus epidermis [5] (Staphylococcus, ATCC12228, read-out: MIC), 3.9 µg/mL (≈ 11.2 µM). In addition, the “Zone of inhibition (class)” value with Pseudomonas aeruginosa [6] (25 μg/disc), in the assay on Salmonella typhi [7] (25 μg/disc) and in the assay on Staphylococcus aureus [8] (25 μg/disc) was “R” in each case. The zone of inhibition at 25 µg/disc was below 13 mm in the assay with Staphylococcus aureus [8] (Staphylococcus aureus, 25 μg/disc, read-out: Zone of inhibition: diameter); 22.3 ± 1.77 mm in the assay with Escherichia coli [9] (Escherichia coli, 25 μg/disc, read-out: Zone of inhibition: diameter); 23.3 mm with Staphylococcus epidermis [10] (Staphylococcus, 25 μg/disc, read-out: Zone of inhibition: diameter).
As to `O=C1C(=Cc2ccc(F)cc2)CNCC12C(c1ccc(F)cc1)C1CSCN1C21C(=O)Nc2ccccc21` (stereo not drawn) [Compound 6a, spiro[5.3″ ]-oxindole-spiro-[6.2′]-6′-(4-fluorophenylmethylidene)tetrahydro-4′(1H)-pyridinone-7-(4-fluorophenyl)tetrahydro-1H-pyrrolo[1,2-c][1,3] thiazole], the MBC against Escherichia coli [1] was determined as 29.25 µg/mL (≈ 55.2 µM); with Pseudomonas aeruginosa [2], 58.55 µg/mL (≈ 111 µM); with Salmonella typhi [3], 58.55 µg/mL (≈ 111 µM); in the assay with Staphylococcus aureus [4], 58.55 µg/mL (≈ 111 µM); in the assay with Staphylococcus epidermis [5], 29.25 µg/mL (≈ 55.2 µM). In addition, the minimum inhibitory concentration (MIC) in the assay on Escherichia coli [1] amounted to 14.62 µg/mL (≈ 27.6 µM); with Pseudomonas aeruginosa [2] it was 29.25 µg/mL (≈ 55.2 µM); against Salmonella typhi [3], 29.25 µg/mL (≈ 55.2 µM); against Staphylococcus aureus [4] it was 29.25 µg/mL (≈ 55.2 µM); against Staphylococcus epidermis [5], 14.62 µg/mL (≈ 27.6 µM). Moreover, the “Zone of inhibition: diameter” value is 19.3±0.81 mm in the assay on Pseudomonas aeruginosa [6] (60 μg/disc); 22.3±1.47 mm in the assay on Salmonella typhi [7] (60 μg/disc); 26.3±0.81 mm in the assay on Staphylococcus aureus [8] (60 μg/disc); 27.3±1.08 mm in the assay with Escherichia coli [9] (60 μg/disc); 31.3±1.08 mm and 31.3 mm in the assay on Staphylococcus epidermis [10] (60 μg/disc). In addition, the “Live/dead AO/EB double staining appearance of treated cells” value was “dented, blistered and damaged cell walls; also recorded: appeared red” in the assay with P. aeruginosa; “dented, blistered and damaged cell walls; also recorded: appeared red” with S. aureus.
